Reference: ChEMBL document CHEMBL2380194, “Structure-based design of HSPA5 inhibitors: from peptide to small molecule inhibitors” (Bioorg Med Chem Lett, 2013)
Calls of active or inactive are those of the source. The rule behind the calls is not given here.

What was measured:
HCT-116 [1] = assay: Cytotoxicity against human HCT116 cells assessed as cell viability at 0.1 to 100 uM after 48 hrs by cell titre glo assay; assay type: functional, cell-based
[2] = Cytotoxicity against human PNT2 cells assessed as cell viability at 50 uM after 72 hrs by cell titre glo assay; assay type: cell-based; conditions: pnt2, 72 h
HCT-116 [3] = assay: Cytotoxicity against human HCT116 cells assessed as cell viability at 50 uM after 72 hrs by cell titre glo assay relative to control; assay type: functional; conditions: HCT-116, 72 h, read-out: Activity
HCT-116 [4] = assay: Cytotoxicity against human HCT116 cells assessed as cell survival at 25 uM after 72 hrs by cell titre glo assay relative to control; assay type: functional; conditions: HCT-116, 72 h, read-out: Survival
[5] = Cytotoxicity against human DK1 cells assessed as growth inhibition at 25 uM after 20 mins by green fluorescence assay relative to control; assay type: functional; conditions: DK1, 20 min, read-out: GI
[6] = Cytotoxicity against human PNT2 cells assessed as cell viability after 72 hrs by cell titre glo assay; assay type: cell-based; conditions: pnt2, 72 h
HCT-116 [7] = assay: Cytotoxicity against human HCT116 cells assessed as cell viability after 72 hrs by cell titre glo assay; assay type: functional, cell-based
[8] = Cytotoxicity against human PNT2 cells assessed as growth inhibition at 0.1 to 10 uM after 72 hrs by cell titre glo assay; assay type: cell-based; conditions: pnt2, 72 h
[9] = Cytotoxicity against human DK1 cells assessed as growth inhibition at 50 uM after 20 mins by green fluorescence assay relative to control; assay type: functional; conditions: DK1, 20 min, read-out: GI

Compound | Activity (HCT-116 [1]) | inhibition of growth at 25 µM [5] [%] | Activity [6] | Activity (HCT-116 [7]) | further results
O=C1c2ccccc2NC(c2cc(Cl)cc(Cl)c2O)N1CCc1ccccn1 (configuration not stated) | Active | – | – | – | Activity [2]: Non-toxic; viability at 50 µM (HCT-116 [3]): 50%
COc1ccc2nc3cc(Cl)ccc3c(Nc3ccc(O)c(CN4CCN(C)CC4)c3)c2c1 | Active | 50 | Dose-dependent effect | Dose-dependent effect | viability at 25 µM (HCT-116 [4]): 18%
CC[C@@]1(O)C(=O)OCc2c1cc1n(c2=O)Cc2cc3c(CN(C)C)c(O)ccc3nc2-1 [TOPOTECAN] | Active | – | – | – | growth inhibition (GI) [8]: Toxic
OC(c1cc(-c2ccccc2)nc2c1ccc1ccccc12)C1CCCCN1 (configuration not stated) | Active | 50 | Dose-dependent effect | Dose-dependent effect | viability at 25 µM (HCT-116 [4]): 0%
NS(=O)(=O)c1cc2c(cc1Cl)NC(Cc1ccccc1)NS2(=O)=O (configuration not stated) | inactive | – | – | – | –
Cc1cc(C)c2nc3c(c(C(O)C4CCCCN4)c2c1)CC/C3=C\c1ccc(Cl)cc1 (configuration not stated) | Active | – | – | – | Activity [2]: Non-toxic; viability at 50 µM (HCT-116 [3]): 50%
CC(C)c1ccc(C(C2=C(O)C3C=CC=CC3OC2=O)c2c(O)c3ccccc3oc2=O)cc1 (configuration not stated) | Active | – | – | – | –
OC(c1c(Cl)cc(Cl)c2nc(C34CC5CC(CC(C5)C3)C4)ccc12)C1CCCCN1 (configuration not stated) | Active | – | – | – | growth inhibition (GI) [8]: Toxic
NC(CSC1(c2ccc(Cl)cc2)c2ccccc2-c2ccccc21)C(=O)O (configuration not stated) | Active | 35 | Dose-dependent effect | Dose-dependent effect | inhibition of growth at 50 µM [9]: 50%
